Experimental data as given in patent US8247211B2, “Glycopeptide antibiotics” (American Cyanamid Company, priority 2001, dated 2012).
In brackets after ≈: the same amount, converted by molar mass. One block for each compound: values may come before it.

Experiments:
Test in all cases: In vitro antibacterial evaluation: minimum inhibitory concentration (MIC), broth dilution method
Format in all cases: cell-based
Details in all cases: 18 hours at 35° C.
[1] = tested on: Enterococcus sp.
Procedure, shortened: (§1)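 Broth dilution per NCCLS M7-A2 in Muller-Hinton II […], inoculum 5×10^5 CFU/mL, antibiotic tested over 64-0.06 μg/mL. MIC is taken as the lowest concentration that inhibits growth. Panel includes recent clinical isolates resistant to methicillin, penicillin and/or vancomycin.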

[2] = tested on: Escherichia coli
Procedure, shortened: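 An MIC is reported for each organism as the least concentration giving inhibition, using broth dilution over 64-0.06 μg/mL with a 5×10^5 CFU/mL inoculum.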

[3] = tested on: Staphylococcus sp.
Procedure, shortened: as §1

[4] = tested on: Streptococcus sp.
Procedure, shortened: as §1

[5] = Enterococcus faecalis (GC 2242)
[6] = Enterococcus faecalis (GC 2691)
[7] = Enterococcus faecalis (GC 3059)
[8] = broth dilution, inoculum 5×10^5 CFU/mL
[9] = Streptococcus agalactiae (GC 4564)
[10] = Streptococcus pneumoniae (ATCC 6301)
[11] = Streptococcus pneumoniae (GC 1894)
[12] = Streptococcus pneumoniae (GC 4565)
[13] = Streptococcus pyogenes (GC 4563)

- MIC Enterococcus avium (GC 4558) [1]: 32 µg/mL (≈ 23 µM)
- MIC Enterococcus faecalis (ATCC 29212) [1]: 32 µg/mL (≈ 23 µM)
- MIC Enterococcus faecalis (GC 2242) [1, 5]: 32 µg/mL (≈ 23 µM)
- MIC Enterococcus faecalis (GC 2691) [1, 6]: 32 µg/mL (≈ 23 µM)
- MIC Enterococcus faecalis (GC 3059) [1, 7]: 64 µg/mL (≈ 46 µM)
- MIC Enterococcus faecalis (GC 4552) [1]: 32 µg/mL (≈ 23 µM)
- MIC Enterococcus faecalis (GC 4553) [1]: 32 µg/mL (≈ 23 µM)
- MIC Enterococcus faecalis (GC 4554) [1]: 64 µg/mL (≈ 46 µM)
- MIC Enterococcus faecalis (GC 6189) [1]: 32 µg/mL (≈ 23 µM)
- MIC Enterococcus faecium (GC 2243) [1]: 32 µg/mL (≈ 23 µM)
- MIC Enterococcus faecium (GC 4556) [1]: 32 µg/mL (≈ 23 µM)
- MIC Enterococcus faecium (GC 4557) [1]: 4 µg/mL (≈ 2.87 µM)
- MIC Enterococcus faecalis (GC 2242) [1, 8]: 32 µg/mL (≈ 23 µM)
- MIC Enterococcus faecalis (GC 2691) [1, 8]: 32 µg/mL (≈ 23 µM)
- MIC Enterococcus faecalis (GC 3059) [1, 8]: 64 µg/mL (≈ 46 µM)
- MIC Escherichia coli (ATCC 25922) ([2]; Escherichia coli (ATCC 25922)): >64 µg/mL
- MIC Escherichia coli (GC 4559) [2]: 64 µg/mL (≈ 46 µM)
- MIC Escherichia coli (GC 4560) [2]: 2 µg/mL (≈ 1.44 µM)
- MIC Coagulase Negative Staphylococcus (GC 4547) [3]: 4 µg/mL (≈ 2.87 µM)
- MIC Coagulase Negative Staphylococcus (GC 4548) [3]: 2 µg/mL (≈ 1.44 µM)
- MIC Coagulase Negative Staphylococcus (GC 4549) [3]: 2 µg/mL (≈ 1.44 µM)
- MIC Coagulase Negative Staphylococcus (GC 4551) [3]: 4 µg/mL (≈ 2.87 µM)
- MIC Coagulase Negative Staphylococcus (GC 6257) [3]: 2 µg/mL (≈ 1.44 µM)
- MIC Staphylococcus aureus (ATCC 29213) [3]: 8 µg/mL (≈ 5.75 µM)
- MIC Staphylococcus aureus (GC 1131) [3]: 8 µg/mL (≈ 5.75 µM)
- MIC Staphylococcus aureus (GC 3051) [3]: 8 µg/mL (≈ 5.75 µM)
- MIC Staphylococcus aureus (GC 3053) [3]: 16 µg/mL (≈ 11.5 µM)
- MIC Staphylococcus aureus (GC 4541) [3]: 8 µg/mL (≈ 5.75 µM)
- MIC Staphylococcus aureus (GC 4542) [3]: 1 µg/mL (≈ 0.719 µM)
- MIC Staphylococcus aureus (GC 4544) [3]: 8 µg/mL (≈ 5.75 µM)
- MIC Staphylococcus aureus (GC 4545) [3]: 8 µg/mL (≈ 5.75 µM)
- MIC Staphylococcus aureus-SMITH (GC 4543) [3]: 4 µg/mL (≈ 2.87 µM)
- MIC Streptococcus agalactiae (GC 4564) [4, 9]: 4 µg/mL (≈ 2.87 µM)
- MIC Streptococcus pneumoniae (ATCC 6301) [4, 10]: 1 µg/mL (≈ 0.719 µM)
- MIC Streptococcus pneumoniae (GC 1894) [4, 11]: 0.5 µg/mL (≈ 0.359 µM)
- MIC Streptococcus pneumoniae (GC 4565) [4, 12]: 1 µg/mL (≈ 0.719 µM)
- MIC Streptococcus pyogenes (GC 4563) [4, 13]: 2 µg/mL (≈ 1.44 µM)
- MIC Streptococcus agalactiae (GC 4564) [4, 8]: 4 µg/mL (≈ 2.87 µM)
- MIC Streptococcus pneumoniae (ATCC 6301) [4, 8]: 1 µg/mL (≈ 0.719 µM)
- MIC Streptococcus pneumoniae (GC 1894) [4, 8]: 0.5 µg/mL (≈ 0.359 µM)
- MIC Streptococcus pneumoniae (GC 4565) [4, 8]: 1 µg/mL (≈ 0.719 µM)
- MIC Streptococcus pyogenes (GC 4563) [4, 8]: 2 µg/mL (≈ 1.44 µM)
Structure (SMILES): CC(c1ccccc1)C1NC(=O)CNC(=O)C(CO)NC(=O)C(C(O)C2CNC(=N)N2C2OC(CO)C(O)C(O)C2O)NC(=O)C(C(O)C2CNC(=N)N2)NC(=O)C(Cc2ccc(OC3OC(CO)C(OC4OC(COCc5cccs5)C(O)C(O)C4O)C(O)C3O)cc2)NC1=O (stereo not drawn) [Example 244, Cyclo[glycyl-β-methylphenylalanyl-O-[4-O-[6-O-(2-thienylmethyl)hexopyranosyl]hexopyranosyl]tyrosyl-3-(2-iminoimidazolidin-4-yl)seryl-3-(3-hexopyranosyl-2-iminoimidazolidin-4-yl)serylseryl]]
- MIC Staphylococcus haemolyticus (GC 4546) [3]: 4 µg/mL (≈ 2.87 µM)

- MIC Enterococcus faecium (GC 4557) [1]: 64 µg/mL (≈ 44.6 µM)
- MIC Escherichia coli (GC 4560) [2]: 32 µg/mL (≈ 22.3 µM)
- MIC Coagulase Negative Staphylococcus (GC 4549) [3]: 64 µg/mL (≈ 44.6 µM)
- MIC Coagulase Negative Staphylococcus (GC 6257) [3]: 64 µg/mL (≈ 44.6 µM)
- MIC Streptococcus pneumoniae (ATCC 6301) [4, 10]: 64 µg/mL (≈ 44.6 µM)
- MIC Streptococcus pneumoniae (GC 1894) [4, 11]: 32 µg/mL (≈ 22.3 µM)
- MIC Streptococcus pneumoniae (GC 4565) [4, 12]: 64 µg/mL (≈ 44.6 µM)
- MIC Streptococcus pneumoniae (ATCC 6301) [4, 8]: 64 µg/mL (≈ 44.6 µM)
- MIC Streptococcus pneumoniae (GC 1894) [4, 8]: 32 µg/mL (≈ 22.3 µM)
- MIC Streptococcus pneumoniae (GC 4565) [4, 8]: 64 µg/mL (≈ 44.6 µM)
Structure (SMILES): COc1ccc2cc(COC3C(OC4C(CO)OC(Oc5ccc(CC6NC(=O)C(C(C)c7ccccc7)NC(=O)CNC(=O)C(CO)NC(=O)C(CC7CNC(=N)N7C7OC(CO)C(O)C(O)C7O)NC(=O)C(CC7CNC(=N)N7)NC6=O)cc5)C(O)C4O)OC(CO)C(O)C3O)ccc2c1 (centres unmarked) [Example 245c, Cyclo[3-(2-iminoimidazolidin-4-yl)alanyl-3-(3-hexopyranosyl-2-iminoimidazolidin-4-yl)-alanylserylglycyl-62-methylphenylalanyl-O-[4-O-[2-O-[(6-methoxy-2-naphthyl)methyl]-hexopyranosyl]hexopyranosyl]tyrosyl]]

- MIC Enterococcus avium (GC 4558) [1]: 8 µg/mL (≈ 5.48 µM)
- MIC Enterococcus faecalis (ATCC 29212) [1]: 16 µg/mL (≈ 11 µM)
- MIC Enterococcus faecalis (GC 2242) [1, 5]: 16 µg/mL (≈ 11 µM)
- MIC Enterococcus faecalis (GC 2691) [1, 6]: 32 µg/mL (≈ 21.9 µM)
- MIC Enterococcus faecalis (GC 3059) [1, 7]: 32 µg/mL (≈ 21.9 µM)
- MIC Enterococcus faecalis (GC 4552) [1]: 16 µg/mL (≈ 11 µM)
- MIC Enterococcus faecalis (GC 4553) [1]: 8 µg/mL (≈ 5.48 µM)
- MIC Enterococcus faecalis (GC 4554) [1]: 32 µg/mL (≈ 21.9 µM)
- MIC Enterococcus faecalis (GC 6189) [1]: 16 µg/mL (≈ 11 µM)
- MIC Enterococcus faecium (GC 2243) [1]: 16 µg/mL (≈ 11 µM)
- MIC Enterococcus faecium (GC 4556) [1]: 16 µg/mL (≈ 11 µM)
- MIC Enterococcus faecium (GC 4557) [1]: 4 µg/mL (≈ 2.74 µM)
- MIC Enterococcus faecalis (GC 2242) [1, 8]: 16 µg/mL (≈ 11 µM)
- MIC Enterococcus faecalis (GC 2691) [1, 8]: 32 µg/mL (≈ 21.9 µM)
- MIC Enterococcus faecalis (GC 3059) [1, 8]: 32 µg/mL (≈ 21.9 µM)
- MIC Escherichia coli (GC 4559) [2]: 64 µg/mL (≈ 43.8 µM)
- MIC Escherichia coli (GC 4560) [2]: 4 µg/mL (≈ 2.74 µM)
- MIC Coagulase Negative Staphylococcus (GC 4547) [3]: 4 µg/mL (≈ 2.74 µM)
- MIC Coagulase Negative Staphylococcus (GC 4548) [3]: 4 µg/mL (≈ 2.74 µM)
- MIC Coagulase Negative Staphylococcus (GC 4549) [3]: 4 µg/mL (≈ 2.74 µM)
- MIC Coagulase Negative Staphylococcus (GC 4551) [3]: 8 µg/mL (≈ 5.48 µM)
- MIC Coagulase Negative Staphylococcus (GC 6257) [3]: 2 µg/mL (≈ 1.37 µM)
- MIC Staphylococcus aureus (ATCC 29213) [3]: 4 µg/mL (≈ 2.74 µM)
- MIC Staphylococcus aureus (GC 1131) [3]: 8 µg/mL (≈ 5.48 µM)
- MIC Staphylococcus aureus (GC 3051) [3]: 4 µg/mL (≈ 2.74 µM)
- MIC Staphylococcus aureus (GC 3053) [3]: 4 µg/mL (≈ 2.74 µM)
- MIC Staphylococcus aureus (GC 4541) [3]: 4 µg/mL (≈ 2.74 µM)
- MIC Staphylococcus aureus (GC 4542) [3]: 4 µg/mL (≈ 2.74 µM)
- MIC Staphylococcus aureus (GC 4544) [3]: 8 µg/mL (≈ 5.48 µM)
- MIC Staphylococcus aureus (GC 4545) [3]: 4 µg/mL (≈ 2.74 µM)
- MIC Staphylococcus aureus-SMITH (GC 4543) [3]: 4 µg/mL (≈ 2.74 µM)
- MIC Streptococcus agalactiae (GC 4564) [4, 9]: 2 µg/mL (≈ 1.37 µM)
- MIC Streptococcus pneumoniae (ATCC 6301) [4, 10]: 2 µg/mL (≈ 1.37 µM)
- MIC Streptococcus pneumoniae (GC 1894) [4, 11]: 0.5 µg/mL (≈ 0.343 µM)
- MIC Streptococcus pneumoniae (GC 4565) [4, 12]: 2 µg/mL (≈ 1.37 µM)
- MIC Streptococcus pyogenes (GC 4563) [4, 13]: 4 µg/mL (≈ 2.74 µM)
- MIC Streptococcus agalactiae (GC 4564) [4, 8]: 2 µg/mL (≈ 1.37 µM)
- MIC Streptococcus pneumoniae (ATCC 6301) [4, 8]: 2 µg/mL (≈ 1.37 µM)
- MIC Streptococcus pneumoniae (GC 1894) [4, 8]: 0.5 µg/mL (≈ 0.343 µM)
- MIC Streptococcus pneumoniae (GC 4565) [4, 8]: 2 µg/mL (≈ 1.37 µM)
- MIC Streptococcus pyogenes (GC 4563) [4, 8]: 4 µg/mL (≈ 2.74 µM)
Structure (SMILES): CC(c1ccccc1)C1NC(=O)CNC(=O)C(CO)NC(=O)C(CC2CNC(=N)N2C2OC(CO)C(O)C(O)C2O)NC(=O)C(CC2CNC(=N)N2)NC(=O)C(Cc2ccc(OC3OC(CO)C(OC4OC(COCc5ccc(OCc6ccccc6)cc5)C(O)C(O)C4O)C(O)C3O)cc2)NC1=O (stereo not drawn) [Example 246, Cyclo[3-(2-iminoimidazolidin-4-yl)alanyl-3-(3-hexopyranosyl-2-iminoimidazolidin-4-yl)-alanylserylglycyl-β-methylphenylalanyl-O-[4-O-[6-O-[4-(phenylmethoxy)benzyl]hexopyranosyl]hexopyranosyl]tyrosyl]]
- MIC Staphylococcus haemolyticus (GC 4546) [3]: 4 µg/mL (≈ 2.74 µM)
